Experimental data: patent publication US9340590B2 (priority 2011, dated 2016)
Positions of bridges follow the written chain, without caps; N, C: chain ends. Residues, ends and D or L forms follow the SMILES beside them.

biological target: hNav1.7 (Homo sapiens, UniProt Q15858); experiment: cell-based; type: cell-based; conditions: IonWorks Quattro, Use; read-out: IWQ Use Nav1.7
Sequence (Q15858 whole entry, looked up): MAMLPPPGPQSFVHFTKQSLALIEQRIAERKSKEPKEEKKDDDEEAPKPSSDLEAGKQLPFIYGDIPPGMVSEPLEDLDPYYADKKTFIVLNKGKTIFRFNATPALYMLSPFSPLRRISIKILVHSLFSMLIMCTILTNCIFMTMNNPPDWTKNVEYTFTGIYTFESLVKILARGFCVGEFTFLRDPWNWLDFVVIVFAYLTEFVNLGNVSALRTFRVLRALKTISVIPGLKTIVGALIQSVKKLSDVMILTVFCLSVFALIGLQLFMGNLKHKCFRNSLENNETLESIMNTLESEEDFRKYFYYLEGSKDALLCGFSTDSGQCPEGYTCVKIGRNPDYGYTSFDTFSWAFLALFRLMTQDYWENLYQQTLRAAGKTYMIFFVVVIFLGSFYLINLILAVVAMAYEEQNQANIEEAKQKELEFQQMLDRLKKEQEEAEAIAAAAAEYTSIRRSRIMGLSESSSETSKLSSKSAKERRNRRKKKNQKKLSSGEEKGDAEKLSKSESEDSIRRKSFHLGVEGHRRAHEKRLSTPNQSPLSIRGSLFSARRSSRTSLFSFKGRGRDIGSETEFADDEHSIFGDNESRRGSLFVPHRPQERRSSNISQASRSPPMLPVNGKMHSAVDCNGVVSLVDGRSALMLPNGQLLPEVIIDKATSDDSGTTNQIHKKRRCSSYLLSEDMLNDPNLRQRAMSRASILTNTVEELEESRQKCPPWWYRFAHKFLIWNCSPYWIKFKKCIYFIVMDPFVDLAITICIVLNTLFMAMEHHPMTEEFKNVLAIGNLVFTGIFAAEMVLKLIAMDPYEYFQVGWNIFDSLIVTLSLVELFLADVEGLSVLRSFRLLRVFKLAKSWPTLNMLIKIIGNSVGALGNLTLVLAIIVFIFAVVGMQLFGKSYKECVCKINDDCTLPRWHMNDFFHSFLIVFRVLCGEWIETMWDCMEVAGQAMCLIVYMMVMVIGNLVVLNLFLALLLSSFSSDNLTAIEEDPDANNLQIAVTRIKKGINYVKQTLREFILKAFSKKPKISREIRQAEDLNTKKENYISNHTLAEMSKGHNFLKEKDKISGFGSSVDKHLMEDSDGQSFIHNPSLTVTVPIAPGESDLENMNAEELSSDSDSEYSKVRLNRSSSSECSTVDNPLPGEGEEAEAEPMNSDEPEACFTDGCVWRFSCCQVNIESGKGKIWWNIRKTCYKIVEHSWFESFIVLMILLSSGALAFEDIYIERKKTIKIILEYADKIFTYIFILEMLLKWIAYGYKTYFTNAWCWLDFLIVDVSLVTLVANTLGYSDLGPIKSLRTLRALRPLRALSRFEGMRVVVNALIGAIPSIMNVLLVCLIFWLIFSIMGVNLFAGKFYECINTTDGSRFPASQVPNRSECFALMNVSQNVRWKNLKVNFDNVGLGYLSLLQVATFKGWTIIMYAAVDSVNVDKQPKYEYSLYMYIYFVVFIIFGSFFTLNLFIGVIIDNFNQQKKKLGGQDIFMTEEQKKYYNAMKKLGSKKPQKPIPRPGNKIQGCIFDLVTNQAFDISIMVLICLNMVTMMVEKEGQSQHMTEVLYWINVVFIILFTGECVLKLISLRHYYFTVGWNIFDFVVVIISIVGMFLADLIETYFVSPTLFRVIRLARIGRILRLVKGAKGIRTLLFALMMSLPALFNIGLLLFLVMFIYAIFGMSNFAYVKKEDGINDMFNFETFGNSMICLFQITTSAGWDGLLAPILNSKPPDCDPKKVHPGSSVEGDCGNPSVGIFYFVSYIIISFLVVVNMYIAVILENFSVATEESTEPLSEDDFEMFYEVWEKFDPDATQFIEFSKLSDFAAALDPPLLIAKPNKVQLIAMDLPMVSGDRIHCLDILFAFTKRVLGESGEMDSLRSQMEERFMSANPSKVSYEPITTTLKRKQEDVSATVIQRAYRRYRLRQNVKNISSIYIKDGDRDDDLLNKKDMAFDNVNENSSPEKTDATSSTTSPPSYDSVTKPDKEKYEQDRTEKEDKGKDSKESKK

Row | SMILES | IC50
1 | CC[C@H](C)[C@@H]1NC(=O)[C@@H]2CSSC[C@@H]3NC(=O)[C@H](C)NC(=O)[C@H](CC(C)C)NC(=O)[C@H](CC(N)=O)NC(=O)[C@@H]4CCCN4C(=O)[C@H](CCCNC(=N)N)NC(=O)[C@H](CSSC[C@H](NC(=O)[C@@H](N)CC(=O)O)C(=O)N[C@@H](CC(C)C)C(=O)NCC(=O)N[C@@H](Cc4ccccc4)C(=O)N[C@@H](CCSC)C(=O)N[C@@H](CCCNC(=N)N)C(=O)N[C@@H](CCCCN)C(=O)N2)NC(=O)[C@H](CSSC[C@@H](C(=O)N[C@@H](CCCCN)C(=O)N[C@@H](Cc2ccc(O)cc2)C(=O)N[C@H](C(=O)N[C@@H](Cc2ccccc2)C(N)=O)C(C)C)NC(=O)[C@H](Cc2c[nH]c4ccccc24)NC(=O)[C@H](CCCCN)NC(=O)[C@H](Cc2c[nH]cn2)NC(=O)[C@H]([C@@H](C)O)NC(=O)[C@H](CCCNC(=N)N)NC(=O)[C@H](CO)NC3=O)NC(=O)[C@H](CCCCN)NC(=O)[C@H](CC(=O)O)NC(=O)[C@H](CC(N)=O)NC(=O)[C@H](CC(=O)O)NC(=O)[C@@H]2CCCN2C1=O [compound 8] (H-DCLGFMRKCIPDNDKCCRPNLACSRTHKWCKYVF-NH2; disulfide 2-17, 9-23, 16-30) | 380 nM
2 | CSCC[C@@H]1NC(=O)[C@H](Cc2ccccc2)NC(=O)CNC(=O)[C@H](CC(C)C)NC(=O)[C@@H](NC(=O)[C@@H](N)CC(=O)O)CSSC[C@@H]2NC(=O)[C@@H]3CSSC[C@@H](C(=O)N[C@@H](CCCCN)C(=O)N[C@@H](Cc4ccc(O)cc4)C(=O)N[C@H](C(=O)N[C@@H](Cc4ccccc4)C(N)=O)C(C)C)NC(=O)[C@H](Cc4c[nH]c5ccccc45)NC(=O)[C@H](CCCCN)NC(=O)[C@H](Cc4c[nH]cn4)NC(=O)[C@H]([C@@H](C)O)NC(=O)[C@H](CCCNC(=N)N)NC(=O)[C@H](CO)NC(=O)[C@H](CSSC[C@H](NC(=O)[C@H](CCCCN)NC(=O)[C@H](CCCNC(=N)N)NC1=O)C(=O)N[C@@H](C)C(=O)N1CCC[C@H]1C(=O)N[C@@H](CC(=O)O)C(=O)N[C@@H](CC(N)=O)C(=O)N[C@@H](CC(=O)O)C(=O)N[C@@H](CCCCN)C(=O)N3)NC(=O)[C@H](C(C)C)NC(=O)[C@H](CC(C)C)NC(=O)[C@H](CC(N)=O)NC(=O)[C@@H]1CCCN1C(=O)[C@H](CCCNC(=N)N)NC2=O [compound 45] (H-DCLGFMRKCAPDNDKCCRPNLVCSRTHKWCKYVF-NH2; disulfide 2-17, 9-23, 16-30) | 210 nM
3 | CC[C@H](C)[C@@H]1NC(=O)[C@@H]2CSSC[C@@H]3NC(=O)[C@H](C(C)C)NC(=O)[C@H](CC(C)C)NC(=O)[C@H](CC(N)=O)NC(=O)[C@@H]4CCCN4C(=O)[C@H](CCCNC(=N)N)NC(=O)[C@H](CSSC[C@H](NC(=O)[C@@H](N)CC(=O)O)C(=O)N[C@@H](CC(C)C)C(=O)NCC(=O)N[C@@H](Cc4ccccc4)C(=O)N[C@@H](CCSC)C(=O)N[C@@H](CCCNC(=N)N)C(=O)N[C@@H](CCCCN)C(=O)N2)NC(=O)[C@H](CSSC[C@@H](C(=O)N[C@@H](CCCCN)C(=O)N[C@@H](Cc2ccc(O)cc2)C(=O)N[C@H](C(=O)N[C@@H](Cc2ccccc2)C(N)=O)C(C)C)NC(=O)[C@H](Cc2c[nH]c4ccccc24)NC(=O)[C@H](CCCCN)NC(=O)[C@H](Cc2c[nH]cn2)NC(=O)[C@H]([C@@H](C)O)NC(=O)[C@H](CCCNC(=N)N)NC(=O)[C@H](CO)NC3=O)NC(=O)[C@H](CCCCN)NC(=O)[C@H](CC(=O)O)NC(=O)[C@H](CCCCN)NC(=O)[C@H](CC(=O)O)NC(=O)[C@@H]2CCCN2C1=O [compound 48] (H-DCLGFMRKCIPDKDKCCRPNLVCSRTHKWCKYVF-NH2; disulfide 2-17, 9-23, 16-30) | 210 nM
4 | CC[C@H](C)[C@@H]1NC(=O)[C@@H]2CSSC[C@@H]3NC(=O)[C@H](C(C)C)NC(=O)[C@H](CC(C)C)NC(=O)[C@H](CC(N)=O)NC(=O)[C@@H]4CCCN4C(=O)[C@H](CCCNC(=N)N)NC(=O)[C@H](CSSC[C@H](NC(=O)[C@@H](N)CC(=O)O)C(=O)N[C@@H](CC(C)C)C(=O)NCC(=O)N[C@@H](Cc4ccccc4)C(=O)N[C@@H](CCSC)C(=O)N[C@@H](CCCNC(=N)N)C(=O)N[C@@H](CCCCN)C(=O)N2)NC(=O)[C@H](CSSC[C@@H](C(=O)N[C@@H](CCCCN)C(=O)N[C@@H](Cc2ccc(O)cc2)C(=O)N[C@H](C(=O)N[C@@H](Cc2ccccc2)C(N)=O)C(C)C)NC(=O)[C@H](Cc2c[nH]c4ccccc24)NC(=O)[C@H](CCCCN)NC(=O)[C@H](Cc2c[nH]cn2)NC(=O)[C@H]([C@@H](C)O)NC(=O)[C@H](CCCCN)NC(=O)[C@H](CO)NC3=O)NC(=O)[C@H](CCCCN)NC(=O)[C@H](CC(=O)O)NC(=O)[C@H](CC(N)=O)NC(=O)[C@H](CC(=O)O)NC(=O)[C@@H]2CCCN2C1=O [compound 53] (H-DCLGFMRKCIPDNDKCCRPNLVCSKTHKWCKYVF-NH2; disulfide 2-17, 9-23, 16-30) | 380 nM
5 | CC[C@H](C)[C@@H]1NC(=O)[C@@H]2CSSC[C@@H]3NC(=O)[C@H](C(C)C)NC(=O)[C@H](CC(C)C)NC(=O)[C@H](CCCNC(=N)N)NC(=O)[C@@H]4CCCN4C(=O)[C@H](CCCNC(=N)N)NC(=O)[C@H](CSSC[C@H](NC(=O)[C@@H](N)CC(=O)O)C(=O)N[C@@H](CC(C)C)C(=O)NCC(=O)N[C@@H](Cc4ccccc4)C(=O)N[C@@H](CCSC)C(=O)N[C@@H](CCCNC(=N)N)C(=O)N[C@@H](CCCCN)C(=O)N2)NC(=O)[C@H](CSSC[C@@H](C(=O)N[C@@H](CCCCN)C(=O)N[C@@H](Cc2ccc(O)cc2)C(=O)N[C@H](C(=O)N[C@@H](Cc2ccccc2)C(N)=O)C(C)C)NC(=O)[C@H](Cc2c[nH]c4ccccc24)NC(=O)[C@H](CCCCN)NC(=O)[C@H](Cc2c[nH]cn2)NC(=O)[C@H]([C@@H](C)O)NC(=O)[C@H](CCCNC(=N)N)NC(=O)[C@H](CO)NC3=O)NC(=O)[C@H](CCCCN)NC(=O)[C@H](CC(=O)O)NC(=O)[C@H](CC(N)=O)NC(=O)[C@H](CC(=O)O)NC(=O)[C@@H]2CCCN2C1=O [compound 69] (H-DCLGFMRKCIPDNDKCCRPRLVCSRTHKWCKYVF-NH2; disulfide 2-17, 9-23, 16-30) | 170 nM

same assay, conditions: read-out: IWQ Use Nav1.7

Row | SMILES | IC50
6 | CC[C@H](C)[C@@H]1NC(=O)[C@@H]2CSSC[C@@H]3NC(=O)[C@H](C(C)C)NC(=O)[C@H](CC(C)C)NC(=O)[C@H](CC(N)=O)NC(=O)[C@@H]4CCCN4C(=O)[C@H](CCCNC(=N)N)NC(=O)[C@H](CSSC[C@H](NC(=O)[C@@H](N)CC(=O)O)C(=O)N[C@@H](CC(C)C)C(=O)NCC(=O)N[C@@H](Cc4ccccc4)C(=O)N[C@@H](CCSC)C(=O)N[C@@H](CCCNC(=N)N)C(=O)N[C@@H](CCCCN)C(=O)N2)NC(=O)[C@H](CSSC[C@@H](C(=O)N[C@@H](CCCCN)C(=O)N[C@@H](C)C(=O)N[C@H](C(=O)N[C@@H](Cc2ccccc2)C(N)=O)C(C)C)NC(=O)[C@H](Cc2c[nH]c4ccccc24)NC(=O)[C@H](CCCCN)NC(=O)[C@H](Cc2c[nH]cn2)NC(=O)[C@H]([C@@H](C)O)NC(=O)[C@H](CCCNC(=N)N)NC(=O)[C@H](CO)NC3=O)NC(=O)[C@H](CCCCN)NC(=O)[C@H](CC(=O)O)NC(=O)[C@H](CC(N)=O)NC(=O)[C@H](CC(=O)O)NC(=O)[C@@H]2CCCN2C1=O [compound 14] (H-DCLGFMRKCIPDNDKCCRPNLVCSRTHKWCKAVF-NH2; disulfide 2-17, 9-23, 16-30) | 800 nM
7 | CC[C@H](C)[C@@H]1NC(=O)[C@@H]2CSSC[C@@H]3NC(=O)[C@H](C(C)C)NC(=O)[C@H](CC(C)C)NC(=O)[C@H](CC(N)=O)NC(=O)[C@@H]4CCCN4C(=O)[C@H](CCCNC(=N)N)NC(=O)[C@H](CSSC[C@H](NC(=O)[C@@H](N)CC(=O)O)C(=O)N[C@@H](CC(C)C)C(=O)NCC(=O)N[C@@H](Cc4ccccc4)C(=O)N[C@@H](CCSC)C(=O)N[C@@H](CCCNC(=N)N)C(=O)N[C@@H](CCCCN)C(=O)N2)NC(=O)[C@H](CSSC[C@@H](C(=O)N[C@@H](CCCCN)C(=O)N[C@@H](Cc2ccc(O)cc2)C(=O)N[C@H](C(=O)N[C@@H](Cc2ccccc2)C(N)=O)C(C)C)NC(=O)[C@H](Cc2c[nH]c4ccccc24)NC(=O)[C@H](CCCCN)NC(=O)[C@H](Cc2c[nH]cn2)NC(=O)[C@H]([C@@H](C)O)NC(=O)[C@H](CCCNC(=N)N)NC(=O)[C@H](CO)NC3=O)NC(=O)[C@H](CCCCN)NC(=O)[C@H](CC(=O)O)NC(=O)[C@H](CC(N)=O)NC(=O)[C@H](CCCCN)NC(=O)[C@@H]2CCCN2C1=O [compound 42] (H-DCLGFMRKCIPKNDKCCRPNLVCSRTHKWCKYVF-NH2; disulfide 2-17, 9-23, 16-30) | 120 nM
8 | CC[C@H](C)[C@@H]1NC(=O)[C@@H]2CSSC[C@@H]3NC(=O)[C@H](C(C)C)NC(=O)[C@H](CC(C)C)NC(=O)[C@H](CC(N)=O)NC(=O)[C@H](CCCCN)NC(=O)[C@H](CCCNC(=N)N)NC(=O)[C@H](CSSC[C@H](NC(=O)[C@@H](N)CC(=O)O)C(=O)N[C@@H](CC(C)C)C(=O)NCC(=O)N[C@@H](Cc4ccccc4)C(=O)N[C@@H](CCSC)C(=O)N[C@@H](CCCNC(=N)N)C(=O)N[C@@H](CCCCN)C(=O)N2)NC(=O)[C@H](CSSC[C@@H](C(=O)N[C@@H](CCCCN)C(=O)N[C@@H](Cc2ccc(O)cc2)C(=O)N[C@H](C(=O)N[C@@H](Cc2ccccc2)C(N)=O)C(C)C)NC(=O)[C@H](Cc2c[nH]c4ccccc24)NC(=O)[C@H](CCCCN)NC(=O)[C@H](Cc2c[nH]cn2)NC(=O)[C@H]([C@@H](C)O)NC(=O)[C@H](CCCNC(=N)N)NC(=O)[C@H](CO)NC3=O)NC(=O)[C@H](CCCCN)NC(=O)[C@H](CC(=O)O)NC(=O)[C@H](CC(N)=O)NC(=O)[C@H](CC(=O)O)NC(=O)[C@@H]2CCCN2C1=O [compound 50] (H-DCLGFMRKCIPDNDKCCRKNLVCSRTHKWCKYVF-NH2; disulfide 2-17, 9-23, 16-30) | 120 nM
9 | CC[C@H](C)[C@@H]1NC(=O)[C@@H]2CSSC[C@@H]3NC(=O)[C@H](C(C)C)NC(=O)[C@H](CC(C)C)NC(=O)[C@H](CC(N)=O)NC(=O)[C@@H]4CCCN4C(=O)[C@H](CCCNC(=N)N)NC(=O)[C@H](CSSC[C@H](NC(=O)[C@@H](N)CC(=O)O)C(=O)N[C@@H](CC(C)C)C(=O)NCC(=O)N[C@@H](Cc4ccccc4)C(=O)N[C@@H](CCSC)C(=O)N[C@@H](CCCNC(=N)N)C(=O)N[C@@H](CCCCN)C(=O)N2)NC(=O)[C@H](CSSC[C@@H](C(=O)N[C@@H](CCCCN)C(=O)N[C@@H](Cc2ccc(O)cc2)C(=O)N[C@H](C(=O)N[C@@H](Cc2ccccc2)C(N)=O)C(C)C)NC(=O)[C@H](Cc2c[nH]c4ccccc24)NC(=O)[C@H](CCCCN)NC(=O)[C@H](Cc2c[nH]cn2)NC(=O)[C@H]([C@@H](C)O)NC(=O)[C@H](CCCNC(=N)N)NC(=O)[C@H](CO)NC3=O)NC(=O)[C@H](CCCCN)NC(=O)[C@H](CC(=O)O)NC(=O)[C@H](CC(N)=O)NC(=O)[C@H](CCCNC(=N)N)NC(=O)[C@@H]2CCCN2C1=O [compound 67] (H-DCLGFMRKCIPRNDKCCRPNLVCSRTHKWCKYVF-NH2; disulfide 2-17, 9-23, 16-30) | 110 nM
